# Measured values as given in ChEMBL document CHEMBL4261654, “Synthesis and in vitro antitumor activity of novel alkenyl derivatives of pyridoxine, bioisosteric analogs of feruloyl methane” (Bioorg Med Chem, 2018).
# Activity calls are given as the source filed them. No cut-off for these calls is given here.
# Columns and labels:
# M14 = experiment: Antiproliferative activity against human M14 cells after 72 hrs by MTT assay; assay type: functional, cell-based; details: M14, 72 h
# PC-3 [1] = experiment: Antiproliferative activity in human PC3 cells up to 50 uM measured during 120 hrs each 15 mins by RTCA DP based cellular impedance analysis; assay type: functional
# PC-3 [2] = experiment: Antiproliferative activity against human PC3 cells after 72 hrs by MTT assay; assay type: functional, cell-based; details: PC-3, 72 h
# HCT-116 = experiment: Antiproliferative activity against human HCT116 cells after 72 hrs by MTT assay; assay type: functional, cell-based; details: HCT-116, 72 h
# PC-3 [3] = experiment: Induction of apoptosis in human PC3 cells assessed as early apoptotic cells at 50 uM after 24 hrs by Annexin V-PE/7-AAD staining-based flow cytometric analysis (reference value: 2%); assay type: functional
# PC-3 [4] = experiment: Induction of apoptosis in human PC3 cells assessed as viable cells at 50 uM after 24 hrs by Annexin V-PE/7-AAD staining-based flow cytometric analysis (reference value: 70%); assay type: functional; details: PC-3, 24 h, read-out: Activity
# PC-3 [5] = experiment: Cell cycle arrest in human PC3 cells assessed as accumulation at G2/M phase at 10 uM after 72 hrs by RNase/propidium iodide staining-based flow cytometric analysis (reference value: 20 +/- 3%); assay type: functional
# SNB-19 = experiment: Antiproliferative activity against human SNB19 cells after 72 hrs by MTT assay; assay type: functional, cell-based; details: SNB-19, 72 h
# PC-3 [6] = experiment: Induction of apoptosis in human PC3 cells assessed as intracellular ROS levels by measuring fluoresence intensity at 150 uM after 24 hrs by DCFH-DA staining-based flow cytometric analysis (reference value: 3176 +/- 398); assay type: functional
# PC-3 [7] = experiment: Cell cycle arrest in human PC3 cells assessed as accumulation at G0/G1 phase at 10 uM after 72 hrs by RNase/propidium iodide staining-based flow cytometric analysis (reference value: 61 +/- 3%); assay type: functional
# PC-3 [8] = experiment: Induction of mitochondrial membrane potential loss in human PC3 cells assessed as fluorescence intensity at 150 uM after 24 hrs by TMRE dye-based flow cytometric analysis (reference value: 10101 +/- 853); assay type: functional
# A498 = experiment: Antiproliferative activity against human A498 cells after 72 hrs by MTT assay; assay type: functional, cell-based; details: A498, 72 h
# PC-3 [9] = experiment: Cell cycle arrest in human PC3 cells assessed as accumulation at S phase at 10 uM after 72 hrs by RNase/propidium iodide staining-based flow cytometric analysis (reference value: 17 +/- 1%); assay type: functional
# PC-3 [10] = experiment: Cell cycle arrest in human PC3 cells assessed as accumulation at G0/G1 phase at 70 uM after 72 hrs by RNase/propidium iodide staining-based flow cytometric analysis (reference value: 61 +/- 3%); assay type: functional
# PC-3 [11] = experiment: Induction of apoptosis in human PC3 cells assessed as late apoptotic cells at 50 uM after 24 hrs by Annexin V-PE/7-AAD staining-based flow cytometric analysis (reference value: 8%); assay type: functional
# PC-3 [12] = experiment: Induction of mitochondrial membrane potential loss in human PC3 cells assessed as fluorescence intensity at 50 uM after 24 hrs by TMRE dye-based flow cytometric analysis (reference value: 10101 +/- 853); assay type: functional
# [13] = Antiproliferative activity against HSF cells after 72 hrs by MTT assay; assay type: cell-based; details: Homo sapiens
# PC-3 [14] = experiment: Induction of apoptosis in human PC3 cells assessed as early apoptotic cells at 150 uM after 24 hrs by Annexin V-PE/7-AAD staining-based flow cytometric analysis (reference value: 2%); assay type: functional
# PC-3 [15] = experiment: Induction of apoptosis in human PC3 cells assessed as necrotic cells at 150 uM after 24 hrs by Annexin V-PE/7-AAD staining-based flow cytometric analysis (reference value: 14%); assay type: functional
# PC-3 [16] = experiment: Cell cycle arrest in human PC3 cells assessed as accumulation at S phase at 70 uM after 72 hrs by RNase/propidium iodide staining-based flow cytometric analysis (reference value: 17 +/- 1%); assay type: functional
# OVCAR-4 = experiment: Antiproliferative activity against human OVCAR4 cells after 72 hrs by MTT assay; assay type: functional, cell-based; details: OVCAR-4, 72 h
# [17] = Antioxidant activity assessed as ferric ion reducing activity at 20 to 320 umol after 20 mins by FRAP assay; assay type: functional
# MCF7 = experiment: Antiproliferative activity against human MCF7 cells after 72 hrs by MTT assay; assay type: functional, cell-based; details: MCF7, 72 h
# PC-3 [18] = experiment: Induction of apoptosis in human PC3 cells assessed as viable cells at 150 uM after 24 hrs by Annexin V-PE/7-AAD staining-based flow cytometric analysis (reference value: 70%); assay type: functional; details: PC-3, 24 h, read-out: Activity
# HCT-15 = experiment: Antiproliferative activity against human HCT15 cells after 72 hrs by MTT assay; assay type: functional, cell-based; details: HCT-15, 72 h
# PC-3 [19] = experiment: Antimigratory activity in human PC3 cells up to 50 uM measured during 120 hrs each 15 mins by RTCA DP based cellular impedance analysis; assay type: functional
# NCI-H322M = experiment: Antiproliferative activity against human NCI-H322M cells after 72 hrs by MTT assay; assay type: functional, cell-based
# MDA-MB-231 = experiment: Antiproliferative activity against human MDA-MB-231 cells after 72 hrs by MTT assay; assay type: functional, cell-based; details: MDA-MB-231, 72 h
# PC-3 [20] = experiment: Induction of apoptosis in human PC3 cells assessed as intracellular ROS levels by measuring fluoresence intensity at 50 uM after 24 hrs by DCFH-DA staining-based flow cytometric analysis (reference value: 3176 +/- 398); assay type: functional
# PC-3 [21] = experiment: Cell cycle arrest in human PC3 cells assessed as accumulation at G2/M phase at 70 uM after 72 hrs by RNase/propidium iodide staining-based flow cytometric analysis (reference value: 20 +/- 3%); assay type: functional
# PC-3 [22] = experiment: Induction of apoptosis in human PC3 cells assessed as necrotic cells at 50 uM after 24 hrs by Annexin V-PE/7-AAD staining-based flow cytometric analysis (reference value: 14%); assay type: functional
# PC-3 [23] = experiment: Induction of apoptosis in human PC3 cells assessed as late apoptotic cells at 150 uM after 24 hrs by Annexin V-PE/7-AAD staining-based flow cytometric analysis (reference value: 8%); assay type: functional
# PC-3 [24] = experiment: Antiproliferative activity in human PC3 cells at 2 to 10 uM measured during 120 hrs each 15 mins by RTCA DP based cellular impedance analysis; assay type: functional, cell-based
# HEK293 = experiment: Antiproliferative activity against human HEK293 cells after 72 hrs by MTT assay; assay type: cell-based; details: HEK293, 72 h
compound,measurement,setting,value
COc1cc(/C=C/C(C)=O)ccc1O [DEHYDROZINGERONE],IC50,M14,550 µM
same,inhibition (INH),PC-3 [1],47%
same,IC50,PC-3 [2],68 µM
same,IC50,HCT-116,70 µM
same,Activity,PC-3 [3],3%
same,viability at 50 µM,PC-3 [4],70%
same,Activity,PC-3 [5],21%
same,IC50,SNB-19,138 µM
same,Flu intensity,PC-3 [6],7502
same,Activity,PC-3 [7],60%
same,Flu intensity,PC-3 [8],7859
same,IC50,A498,125 µM
same,Activity,PC-3 [9],18%
same,Activity,PC-3 [10],49%
same,Activity,PC-3 [11],13%
same,Flu intensity,PC-3 [12],7701
same,IC50,[13],176 µM
same,Activity,PC-3 [14],3%
same,Activity,PC-3 [15],16%
same,Activity,PC-3 [16],17%
same,IC50,OVCAR-4,139 µM
same,Activity,[17],Active
same,IC50,MCF7,31 µM
same,viability at 150 µM,PC-3 [18],64%
same,IC50,HCT-15,65 µM
same,inhibition (INH),PC-3 [19],78%
same,IC50,NCI-H322M,96 µM
same,IC50,MDA-MB-231,86 µM
same,Flu intensity,PC-3 [20],2024
same,Activity,PC-3 [21],31%
same,Activity,PC-3 [22],13%
same,Activity,PC-3 [23],16%
same,Activity,PC-3 [24],inactive
same,IC50,HEK293,64 µM
